Reference: ChEMBL document CHEMBL5543150, “Design, Synthesis, and Pharmacological Evaluation of Spiro[carbazole-3,3'-pyrrolidine] Derivatives as cGAS Inhibitors for Treatment of Acute Lung Injury” (J Med Chem, 2024)
Where “and” joins values, the source holds several entries; their conditions need not be identical. Equal entries are not always repeated.

Key:
Cyclic GMP-AMP synthase [1] = biological target: T1, Cyclic GMP-AMP synthase (Homo sapiens, UniProt Q8N884); test: Binding affinity to human cGAS assessed as dissociation constant measured upto 240 secs by surface plasmon resonance assay
T1 sequence (Q8N884 whole entry): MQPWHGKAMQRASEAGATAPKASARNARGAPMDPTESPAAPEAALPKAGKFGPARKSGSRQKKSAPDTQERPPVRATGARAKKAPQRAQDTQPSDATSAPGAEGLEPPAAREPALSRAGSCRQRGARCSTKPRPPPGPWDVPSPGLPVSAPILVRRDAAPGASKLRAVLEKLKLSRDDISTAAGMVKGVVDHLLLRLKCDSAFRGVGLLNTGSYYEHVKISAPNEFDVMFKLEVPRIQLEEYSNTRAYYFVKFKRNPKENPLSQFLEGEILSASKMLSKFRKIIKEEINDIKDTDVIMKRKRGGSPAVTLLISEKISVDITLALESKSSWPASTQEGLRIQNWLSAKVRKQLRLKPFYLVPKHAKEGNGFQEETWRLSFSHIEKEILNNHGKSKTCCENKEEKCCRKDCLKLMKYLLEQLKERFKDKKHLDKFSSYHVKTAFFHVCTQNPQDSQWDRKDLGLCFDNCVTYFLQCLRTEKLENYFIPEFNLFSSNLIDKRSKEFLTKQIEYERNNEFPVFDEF

Cyclic GMP-AMP synthase [2] = biological target: T1, Cyclic GMP-AMP synthase; test: Inhibition of cGAS in human THP1-Dual cells preincubated for 1 hr followed by cGAMP addition and measured after 24 hrs by luminescence based QUANTI-Luc assay
Cyclic GMP-AMP synthase [3] = biological target: T2, Cyclic GMP-AMP synthase (Mus musculus, UniProt Q8C6L5); test: Inhibition of cGAS in mouse RAW-Lucia ISG cells preincubated for 1 hr followed by cGAMP addition and measured after 24 hrs by luminescence based QUANTI-Luc assay
T2 sequence (Q8C6L5 whole entry): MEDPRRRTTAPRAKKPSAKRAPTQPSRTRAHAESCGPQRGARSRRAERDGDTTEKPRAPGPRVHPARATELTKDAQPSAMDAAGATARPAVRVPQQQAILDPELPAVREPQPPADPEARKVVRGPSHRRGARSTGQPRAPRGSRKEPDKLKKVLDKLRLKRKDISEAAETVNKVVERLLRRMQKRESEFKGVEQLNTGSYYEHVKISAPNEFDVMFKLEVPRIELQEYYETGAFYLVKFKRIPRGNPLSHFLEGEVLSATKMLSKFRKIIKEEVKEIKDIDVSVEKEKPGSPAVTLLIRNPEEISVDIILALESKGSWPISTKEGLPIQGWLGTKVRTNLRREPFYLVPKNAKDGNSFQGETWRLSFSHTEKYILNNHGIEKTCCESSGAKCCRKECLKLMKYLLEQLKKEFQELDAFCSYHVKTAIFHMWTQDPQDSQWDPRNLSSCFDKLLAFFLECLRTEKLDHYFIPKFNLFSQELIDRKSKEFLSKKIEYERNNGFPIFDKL

Cyclic GMP-AMP synthase [4] = biological target: T2, Cyclic GMP-AMP synthase; test: Inhibition of cGAS in dsDNA activated mouse RAW-Lucia ISG cells preincubated for 1 hr followed by cGAMP addition and measured after 24 hrs by luminescence based QUANTI-Luc assay
[5] = Cytotoxicity against mouse RAW-Lucia ISG cells incubated for 24 hrs by CCK-8 method
Cyclic GMP-AMP synthase [6] = biological target: T1, Cyclic GMP-AMP synthase; test: Inhibition of full length recombinant human cGAS expressed in Escherichia coli BL21 (DE3) incubated for 7 hrs by Kinase-glo max luminescent kinase assay
[7] = Half life in rat at 1 mg/kg, iv; details: in vivo
[8] = MRT last in rat at 1 mg/kg, iv; details: in vivo
[9] = Volume of distribution at steady state in rat at 1 mg/kg, iv; details: in vivo
[10] = Half life in rat at 3 mg/kg, po; details: in vivo
[11] = MRT last in rat at 3 mg/kg, po; details: in vivo
Cyclic GMP-AMP synthase [12] = biological target: T1, Cyclic GMP-AMP synthase; test: Inhibition of cGAS in dsDNA stimulated human THP-1 cells assessed as inhibition of IFNB1 mRNA level by qRT-PCR analysis
in vivo [13] = details: rat, iv, 1 mg/kg
in vivo [14] = details: rat, iv, 1 mg/kg; remark: listed apart in the source
in vivo [15] = details: rat, po, 3 mg/kg
Description: Tmax in rat at 3 mg/kg, po

in vivo [16] = details: rat, po, 3 mg/kg; remark: listed apart in the source
Description: Cmax in rat at 3 mg/kg, po

in vivo [17] = details: rat, po, 3 mg/kg; remark: listed apart in the source
Description: AUC last in rat at 3 mg/kg, po

in vivo [18] = details: rat, po, 3 mg/kg; remark: listed apart in the source
Description: Oral bioavailability in rat at 3 mg/kg

THP1-Dual = test: Cytotoxicity against human THP1-Dual cells incubated for 24 hrs by CCK-8 method
Cyclic GMP-AMP synthase [19] = biological target: T1, Cyclic GMP-AMP synthase; test: Inhibition of cGAS in dsDNA activated human THP1-Dual cells preincubated for 1 hr followed by cGAMP addition and measured after 24 hrs by luminescence based QUANTI-Luc assay
Cyclic GMP-AMP synthase [20] = biological target: T1, Cyclic GMP-AMP synthase; test: Inhibition of human cGas incubated for 120 mins
Cyclic GMP-AMP synthase [21] = biological target: T2, Cyclic GMP-AMP synthase; test: Inhibition of mouse cGas incubated for 120 mins
Cyclic GMP-AMP synthase [22] = biological target: T2, Cyclic GMP-AMP synthase

| Compound | IC50 (Cyclic GMP-AMP synthase [2]) | CC50 (THP1-Dual) | also measured |
| --- | --- | --- | --- |
| Cn1ccc(-c2cc(Cl)c(Cl)c3[nH]c4c(c23)CN(C(=O)CO)CC4)n1 | 4.82 µM | – | Kd (Cyclic GMP-AMP synthase [1]): 0.053 µM; IC50 (Cyclic GMP-AMP synthase [3]): 14.6 µM and > 10 µM; IC50 (Cyclic GMP-AMP synthase [4]): 14.6 µM; CC50 [5]: 51.8 µM; IC50 (Cyclic GMP-AMP synthase [6]): 0.051 µM; half-life [7]: 1.03 h; MRT last [8]: 1.5 h; Vd [9]: 1.88 L/kg; half-life [10]: 1.31 h; MRT last [11]: 3.56 h; IC50 (Cyclic GMP-AMP synthase [12]): 1.7 µM; AUC(0-t) (in vivo [13]): 792 ng·h/mL; clearance (in vivo [14]): 20.7 mL/min/kg; Tmax (in vivo [15]): 2.67 h; Cmax (in vivo [16]): 375 ng/mL; AUC(0-t) (in vivo [17]): 1520 ng·h/mL; bioavailability (in vivo [18]): 64.1% |
| Cn1ccc(-c2cc(Cl)c(Cl)c3[nH]c4c(c23)CC2(CC4)CCN(C(=O)CO)CC2)n1 | 12.9 µM | > 50 µM | – |
| O=C(CO)N1CCC2(CCc3[nH]c4c(Cl)c(Cl)cc(-c5ccc(C(F)(F)F)nc5)c4c3C2)C1 (stereo not given) | 8.66 µM | 31.7 µM | – |
| O=C(CO)N1CCC2(CCc3[nH]c4c(Cl)c(Cl)cc(-c5ccnc(F)c5)c4c3C2)C1 (stereo not given) | 6.27 µM | 13.6 µM | – |
| O=C(CO)N1CCC2(CCc3[nH]c4c(Cl)c(Cl)cc(-c5ccnc(OC(F)F)c5)c4c3C2)C1 (stereo not given) | 6.41 µM | 13.2 µM | – |
| C[C@@H](O)C(=O)N1CCC2(CCc3[nH]c4c(Cl)c(Cl)cc(-c5ccnc(C(F)(F)F)c5)c4c3C2)C1 (stereo not given in full) | 17.6 µM | 39.1 µM | – |
| Cn1ccc(-c2cc(Cl)c(Cl)c3[nH]c4c(c23)CC(NC(=O)CO)CC4)n1 (stereo not given) | > 50 µM | > 50 µM | – |
| Cn1ccc(-c2cc(Cl)c(Cl)c3[nH]c4c(c23)CC2(CC4)CCN(C(=O)CO)C2)n1 (stereo not given) | 7.65 µM | > 50 µM | IC50 (Cyclic GMP-AMP synthase [3]): 8.91 µM; IC50 (Cyclic GMP-AMP synthase [19]): 7.65 µM; IC50 (Cyclic GMP-AMP synthase [4]): 8.91 µM |
| N#Cc1cc(-c2cc(Cl)c(Cl)c3[nH]c4c(c23)CC2(CC4)CCN(C(=O)CO)C2)ccn1 (stereo not given) | 6.35 µM | 10.3 µM | – |
| C[C@H](O)[C@@H](N)C(=O)N1CCC2(CCc3[nH]c4c(Cl)c(Cl)cc(-c5ccnc(C(F)(F)F)c5)c4c3C2)C1 (stereo not given in full) | 11 µM | 30.3 µM | – |
| NCC(=O)N1CCC2(CCc3[nH]c4c(Cl)c(Cl)cc(-c5ccnc(C(F)(F)F)c5)c4c3C2)C1 (stereo not given) | 3.41 µM | 11.1 µM | – |
| O=C(CO)N1CCC2(CCc3[nH]c4c(Cl)c(Cl)cc(-c5ccc(F)nc5F)c4c3C2)C1 (stereo not given) | 7.15 µM | 33.4 µM | – |
| Cn1nc(C(F)(F)F)cc1-c1cc(Cl)c(Cl)c2[nH]c3c(c12)CC1(CC3)CCN(C(=O)CO)C1 (stereo not given) | 5.82 µM | 17.3 µM | – |
| O=C(CO)N1CCC2(CCc3[nH]c4c(Cl)c(Cl)cc(-c5cn[nH]c5)c4c3C2)C1 (stereo not given) | 5.86 µM | 13.7 µM | – |
| Cn1ncc(-c2cc(Cl)c(Cl)c3[nH]c4c(c23)CC2(CC4)CCN(C(=O)CO)C2)n1 (stereo not given) | 10.5 µM | 26.3 µM | – |
| N#Cc1ncc(-c2cc(Cl)c(Cl)c3[nH]c4c(c23)CC2(CC4)CCN(C(=O)CO)C2)cc1F (stereo not given) | 7.82 µM | 33.1 µM | – |
| Cc1nn(-c2cc3ccc(Cl)c(Cl)c3[nH]2)c(O)c1C1OC(=O)c2ccccc21 (stereo not given) | – | – | IC50 (Cyclic GMP-AMP synthase [20]): 0.11 µM; IC50 (Cyclic GMP-AMP synthase [21]): 2.94 µM |
| O=C(CO)N1CCC2(CCc3[nH]c4c(Cl)c(Cl)cc(-c5ccnc(C(F)(F)F)n5)c4c3C2)C1 (stereo not given) | 4.26 µM | 14.4 µM | – |
| C#CC(=O)N1CCn2cccc2C1c1ccccc1 (stereo not given) | – | – | IC50 (Cyclic GMP-AMP synthase [22]): 0.97 µM |

Second part, led by results:

| IC50 (Cyclic GMP-AMP synthase [2]) | Compound | CC50 (THP1-Dual) | also measured |
| --- | --- | --- | --- |
| 24.7 µM | Cn1cc(-c2cc(Cl)c(Cl)c3[nH]c4c(c23)CC2(CC4)CCN(C(=O)CO)C2)cn1 (stereo not given) | > 50 µM | – |
| 12.9 µM | O=C(CO)N1CCC2(CCc3[nH]c4c(Cl)c(Cl)cc(-c5cnn(C6CCNCC6)c5)c4c3C2)C1 (stereo not given) | > 50 µM | – |
| 36 µM | Cn1ccc(-c2cc(Cl)c(Cl)c3[nH]c4c(c23)CC2(CC4)CN(C(=O)CO)C2)n1 | 17.7 µM | – |
| 4.45 µM | O=C(CO)N1CCC2(CCc3[nH]c4c(Cl)c(Cl)cc(-c5ccnc(C(F)(F)F)c5)c4c3C2)C1 (stereo not given) | 34 µM | IC50 (Cyclic GMP-AMP synthase [3]): 11.4 µM; IC50 (Cyclic GMP-AMP synthase [19]): 4.45 µM; IC50 (Cyclic GMP-AMP synthase [4]): 11.4 µM; half-life [7]: 3.36 h; MRT last [8]: 3.59 h; Vd [9]: 4.48 L/kg; half-life [10]: 1.82 h; MRT last [11]: 2.99 h; AUC(0-t) (in vivo [13]): 1070 ng·h/mL; clearance (in vivo [14]): 15.5 mL/min/kg; Tmax (in vivo [15]): 0.667 h; Cmax (in vivo [16]): 223 ng/mL; AUC(0-t) (in vivo [17]): 920 ng·h/mL; bioavailability (in vivo [18]): 30% |
| > 50 µM | Cn1ccc(-c2cc(Cl)c(Cl)c3c2[C@@H]2CN(C(=O)CO)CC[C@@H]2N3)n1 | > 50 µM | – |
| 7.54 µM | O=C(CO)N1CCC2(CCc3[nH]c4c(Cl)c(Cl)cc(-c5cnc(C(F)(F)F)nc5)c4c3C2)C1 (stereo not given) | 34 µM | IC50 (Cyclic GMP-AMP synthase [19]): 7.54 µM |
| 9.48 µM | CS(=O)(=O)CC(=O)N1CCC2(CCc3[nH]c4c(Cl)c(Cl)cc(-c5ccnc(C(F)(F)F)c5)c4c3C2)C1 (stereo not given) | 10.4 µM | – |
| 37.4 µM | Cn1ccc(-c2cc(Cl)c(Cl)c3[nH]c4c(c23)CC2(CCN(C(=O)CO)CC2)C4)n1 | > 50 µM | – |
| 6.45 µM | Nc1cc(-c2cc(Cl)c(Cl)c3[nH]c4c(c23)CC2(CC4)CCN(C(=O)CO)C2)ccn1 (stereo not given) | > 50 µM | IC50 (Cyclic GMP-AMP synthase [3]): 4.71 µM; IC50 (Cyclic GMP-AMP synthase [19]): 6.45 µM; IC50 (Cyclic GMP-AMP synthase [4]): 4.71 µM |
| 6.94 µM | C[C@@H](N)C(=O)N1CCC2(CCc3[nH]c4c(Cl)c(Cl)cc(-c5ccnc(C(F)(F)F)c5)c4c3C2)C1 (stereo not given in full) | 7.08 µM | – |
| 8.04 µM | Nc1ccc(-c2cc(Cl)c(Cl)c3[nH]c4c(c23)CC2(CC4)CCN(C(=O)CO)C2)cn1 (stereo not given) | 47.8 µM | IC50 (Cyclic GMP-AMP synthase [19]): 8.04 µM |
| 6.43 µM | O=C(CO)N1CCC2(CCc3[nH]c4c(Cl)c(Cl)cc(-c5ccnc(C(F)F)c5)c4c3C2)C1 (stereo not given) | 10.6 µM | – |
| 4.3 µM | C[C@H](N)C(=O)N1CCC2(CCc3[nH]c4c(Cl)c(Cl)cc(-c5ccnc(C(F)(F)F)c5)c4c3C2)C1 (stereo not given in full) | 16.4 µM | – |
| 5.8 µM | O=C(CO)N1CCC2(CCc3[nH]c4c(Cl)c(Cl)cc(-c5cnn(C(F)F)c5)c4c3C2)C1 (stereo not given) | 37.7 µM | IC50 (Cyclic GMP-AMP synthase [3]): 8.69 µM; IC50 (Cyclic GMP-AMP synthase [19]): 5.8 µM; IC50 (Cyclic GMP-AMP synthase [4]): 8.69 µM |
| 38.8 µM | C[C@H](O)C(=O)N1CCC2(CCc3[nH]c4c(Cl)c(Cl)cc(-c5ccnc(C(F)(F)F)c5)c4c3C2)C1 (stereo not given in full) | 12.7 µM | – |
| 8.46 µM | CC(C)=C(C#N)C(=O)N1CCC2(CCc3[nH]c4c(Cl)c(Cl)cc(-c5ccnc(C(F)(F)F)c5)c4c3C2)C1 (stereo not given) | 45.1 µM | – |
